Key:
[1] = target: T1, human cloned CHRM4 receptor (Homo sapiens, UniProt P08173); test: CHRM4 Ca++ Flux Assay (M4_CHO cells, agonist mode); assay type: cell-based; details: for Emax: Percent Activity (PA), read-out: M4 FDSS PA %; for EC50: geometric mean if tested more than once, read-out: M4 FDSS EC50
T1 construct: expressed in transfected cells; host or cells: CHO-K1 (M4_CHO)
T1 sequence (P08173 1-479): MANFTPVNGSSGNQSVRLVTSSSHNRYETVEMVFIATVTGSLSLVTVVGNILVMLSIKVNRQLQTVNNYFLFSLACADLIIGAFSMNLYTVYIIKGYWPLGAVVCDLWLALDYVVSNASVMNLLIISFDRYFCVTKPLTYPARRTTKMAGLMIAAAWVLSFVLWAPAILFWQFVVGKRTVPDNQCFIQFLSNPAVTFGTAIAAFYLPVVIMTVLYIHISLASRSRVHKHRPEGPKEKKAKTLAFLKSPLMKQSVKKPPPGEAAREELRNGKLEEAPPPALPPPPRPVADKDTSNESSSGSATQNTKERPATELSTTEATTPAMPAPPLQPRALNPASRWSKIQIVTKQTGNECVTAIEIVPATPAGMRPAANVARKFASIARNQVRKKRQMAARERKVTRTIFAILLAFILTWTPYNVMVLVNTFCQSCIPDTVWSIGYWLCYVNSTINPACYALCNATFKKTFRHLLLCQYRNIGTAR
Summary of the method: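 Agonist-mode calcium flux in an M4-expressing CHO-K1 line: compounds were dosed at 11 points in triplicate and fluorescence was tracked for 3 min. Cells were preloaded with Ca++ dye and kept in −Ca/−Mg HBSS with 20 μM ATP for 60 min. Efficacy is scaled to carbachol EC100; EC50s come from four-parameter regression, geometric mean across runs.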

[2] = target: T2, human cloned CHRM2 receptor (Homo sapiens, UniProt P08172); test: CHRM2 Ca++ Flux Assay (M2_CHO cells, agonist mode); assay type: cell-based; details: M2 CHO cells; for EC50: agonist mode, geometric mean if tested more than once, read-out: M2 FDSS EC50; for Emax: Percent Activity (PA) measured to EC100 of Carbachol, read-out: M2 FDSS PA %
T2 construct: expressed in transfected cells; host or cells: CHO-K1 (M2_CHO)
T2 sequence (P08172 1-466): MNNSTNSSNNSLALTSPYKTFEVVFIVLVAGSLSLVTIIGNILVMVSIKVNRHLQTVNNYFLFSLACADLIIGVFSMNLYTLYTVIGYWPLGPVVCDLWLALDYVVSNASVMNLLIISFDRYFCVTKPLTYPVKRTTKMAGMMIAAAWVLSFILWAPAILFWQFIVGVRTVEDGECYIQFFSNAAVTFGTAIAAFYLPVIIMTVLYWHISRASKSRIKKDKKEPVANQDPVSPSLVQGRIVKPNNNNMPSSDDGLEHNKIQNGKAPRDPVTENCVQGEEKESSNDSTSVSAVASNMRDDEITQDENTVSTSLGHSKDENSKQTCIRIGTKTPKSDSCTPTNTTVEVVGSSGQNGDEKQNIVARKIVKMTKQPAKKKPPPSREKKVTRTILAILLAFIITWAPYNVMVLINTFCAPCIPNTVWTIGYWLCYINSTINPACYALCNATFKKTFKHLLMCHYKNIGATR
Summary of the method: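 Agonist activity was expressed as percent of the carbachol EC100 response, fitted by four-parameter regression on triplicate wells, with geometric means across repeat runs. Calcium traces over 3 minutes came from dye-loaded M2_CHO cells (12K/well) pre-incubated 60 min in Ca/Mg-free HBSS with 20 mM HEPES, 2.5 mM probenecid and 20 μM ATP.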

SMILES	Emax [1] [%]	EC50 [1] [nM]	EC50 [2] [µM]	Emax [2] [%]
COc1ccc(F)cc1C1CCN([C@@H]2COC3(C2)CN(c2ncco2)C3)CC1 [Example 4I, (S)-7-(4-(5-fluoro-2-methoxyphenyl)piperidin-1-yl)-2-(oxazol-2-yl)-5-oxa-2-azaspiro[3.4]octane]	73	19	> 25	0
c1ccc(C2CCN([C@@H]3COC4(C3)CN(c3ncco3)C4)CC2)c(OC2CCOCC2)c1 [Example 4J, (S)-2-(oxazol-2-yl)-7-(4-(2-((tetrahydro-2H-pyran-4-yl)oxy)phenyl)piperidin-1-yl)-5-oxa-2-azaspiro[3.4]octane]	82	30	> 25	0
CC(C)(O)COc1ccc(F)cc1C1CCN([C@@H]2COC3(C2)CN(c2ncco2)C3)CC1 [Example 4K, (S)-1-(4-fluoro-2-(1-(2-(oxazol-2-yl)-5-oxa-2-azaspiro[3.4]octan-7-yl)piperidin-4-yl)phenoxy)-2-methylpropan-2-ol]	66	25	> 25	0
COCCOc1ccc(F)cc1C1CCN([C@@H]2COC3(C2)CN(c2ncco2)C3)CC1 [Example 4L, (S)-7-(4-(5-fluoro-2-(2-methoxyethoxy)phenyl)piperidin-1-yl)-2-(oxazol-2-yl)-5-oxa-2-azaspiro[3.4]octane]	52	27	> 25	0
c1ccc(C2CCN([C@@H]3COC4(C3)CN(c3ncco3)C4)CC2)c(OC2CC3(COC3)C2)c1 [Example 4M, (S)-7-(4-(2-((2-oxaspiro[3.3]heptan-6-yl)oxy)phenyl)piperidin-1-yl)-2-(oxazol-2-yl)-5-oxa-2-azaspiro[3.4]octane]	82	86	> 25	0
COc1ccccc1C1CCN([C@@H]2COC3(C2)CN(c2ncco2)C3)CC1 [Example 4N, (S)-7-(4-(2-methoxyphenyl)piperidin-1-yl)-2-(oxazol-2-yl)-5-oxa-2-azaspiro[3.4]octane]	74	93	> 25	0
Fc1cc(OCC2COC2)c(C2CCN([C@@H]3COC4(C3)CN(c3ncco3)C4)CC2)cc1F [Example 4O, (S)-7-(4-(4,5-difluoro-2-(oxetan-3-ylmethoxy)phenyl)piperidin-1-yl)-2-(oxazol-2-yl)-5-oxa-2-azaspiro[3.4]octane]	58	7	12.7	31
Fc1cc(OCC2(F)COC2)c(C2CCN([C@@H]3COC4(C3)CN(c3ncco3)C4)CC2)cc1F [Example 4P, (S)-7-(4-(4,5-difluoro-2-((3-fluorooxetan-3-yl)methoxy)phenyl)piperidin-1-yl)-2-(oxazol-2-yl)-5-oxa-2-azaspiro[3.4]octane]	63	5	10.5	28
Fc1cc(OC2COC2)c(C2CCN([C@@H]3COC4(C3)CN(c3ncco3)C4)CC2)cc1F [Example 4Q, (S)-7-(4-(4,5-difluoro-2-(oxetan-3-yloxy)phenyl)piperidin-1-yl)-2-(oxazol-2-yl)-5-oxa-2-azaspiro[3.4]octane]	60	11	1.88	13
c1ccc(C2CCN([C@@H]3COC4(C3)CN(c3ncco3)C4)CC2)c(-c2cncnc2)c1 [Example 4R, (S)-2-(oxazol-2-yl)-7-(4-(2-(pyrimidin-5-yl)phenyl)piperidin-1-yl)-5-oxa-2-azaspiro[3.4]octane]	70	3	0.203	12
Fc1ccc(C2CCN([C@@H]3COC4(C3)CN(c3ncco3)C4)CC2)c(OC2COC2)c1 [Example 4S, (S)-7-(4-(4-fluoro-2-(oxetan-3-yloxy)phenyl)piperidin-1-yl)-2-(oxazol-2-yl)-5-oxa-2-azaspiro[3.4]octane]	74	21	> 25	31
c1ccc(C2CCN([C@@H]3COC4(C3)CN(c3ncco3)C4)CC2)c(C2CCOCC2)c1 [Example 4V, (S)-2-(oxazol-2-yl)-7-(4-(2-(tetrahydro-2H-pyran-4-yl)phenyl)piperidin-1-yl)-5-oxa-2-azaspiro[3.4]octane]	82	46	10.7	14
Fc1ccc(C2CCOCC2)c(C2CCN([C@@H]3COC4(C3)CN(c3ncco3)C4)CC2)c1 [Example 4W, (S)-7-(4-(5-fluoro-2-(tetrahydro-2H-pyran-4-yl)phenyl)piperidin-1-yl)-2-(oxazol-2-yl)-5-oxa-2-azaspiro[3.4]octane]	75	21	5.16	21

Continued, values first:

Emax [1] [%]	EC50 [1] [nM]	EC50 [2] [µM]	Emax [2] [%]	SMILES
60	74	> 25	26	COc1ccc(Cl)cc1C1CCN([C@@H]2COC3(C2)CN(c2ncns2)C3)CC1 [Example 5A, (S)-7-(4-(5-chloro-2-methoxyphenyl)piperidin-1-yl)-2-(1,2,4-thiadiazol-5-yl)-5-oxa-2-azaspiro[3.4]octane]
59	87	> 25	0	COc1ccccc1C1CCN([C@@H]2COC3(C2)CN(c2ncns2)C3)CC1 [Example 5B, (S)-7-(4-(2-methoxyphenyl)piperidin-1-yl)-2-(1,2,4-thiadiazol-5-yl)-5-oxa-2-azaspiro[3.4]octane]
66	110	> 25	0	CC(C)(O)COc1ccc(F)cc1C1CCN([C@@H]2COC3(C2)CN(c2ncns2)C3)CC1 [Example 5C, (S)-1-(2-(1-(2-(1,2,4-thiadiazol-5-yl)-5-oxa-2-azaspiro[3.4]octan-7-yl)piperidin-4-yl)-4-fluorophenoxy)-2-methylpropan-2-ol]
46	128	> 25	0	COCCOc1ccc(F)cc1C1CCN([C@@H]2COC3(C2)CN(c2ncns2)C3)CC1 [Example 5D, (S)-7-(4-(5-fluoro-2-(2-methoxyethoxy)phenyl)piperidin-1-yl)-2-(1,2,4-thiadiazol-5-yl)-5-oxa-2-azaspiro[3.4]octane]
39	345	> 25	0	COc1cc(F)ccc1C1CCN([C@@H]2COC3(C2)CN(c2ncns2)C3)CC1 [Example 5E, (S)-7-(4-(4-fluoro-2-methoxyphenyl)piperidin-1-yl)-2-(1,2,4-thiadiazol-5-yl)-5-oxa-2-azaspiro[3.4]octane]
90	< 0.4	0.073	51	Cc1nc(COc2ccccc2C2CCN([C@@H]3COC4(C3)CN(c3nncs3)C4)CC2)no1 [Example 5F, (S)-7-(4-(2-((5-methyl-1,2,4-oxadiazol-3-yl)methoxy)phenyl)piperidin-1-yl)-2-(1,3,4-thiadiazol-2-yl)-5-oxa-2-azaspiro[3.4]octane]
76	13	0.657	35	Fc1ccc(OC2COC2)c(C2CCN([C@@H]3COC4(C3)CN(c3nncs3)C4)CC2)c1 [Example 5G, (S)-7-(4-(5-fluoro-2-(oxetan-3-yloxy)phenyl)piperidin-1-yl)-2-(1,3,4-thiadiazol-2-yl)-5-oxa-2-azaspiro[3.4]octane]

Reference: US11485742B2, “2-azaspiro[3.4]octane derivatives as M4 agonists” (NOVARTIS AG, priority 2019, dated 2022)
